PubChem BioAssay (NCI)
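GI50: concentration for 50% inhibition of growth. TGI denotes the concentration required for complete inhibition of growth.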

Assays:
Assay in all cases: NCI-60 cell line screen, 384-well format
786-0 renal = system: 786-0 renal
A498 renal = system: A498 renal
A549 NSCLC = system: A549 NSCLC
ACHN renal = system: ACHN renal
BT-549 breast = system: BT-549 breast
CAKI-1 renal = system: CAKI-1 renal
COLO 205 colon = system: COLO 205 colon
DU-145 prostate = system: DU-145 prostate
EKVX NSCLC = system: EKVX NSCLC
HCC-2998 colon = system: HCC-2998 colon
HCT-116 colon = system: HCT-116 colon
HCT-15 colon = system: HCT-15 colon
HL-60(TB) leukemia = system: HL-60(TB) leukemia
HOP-62 NSCLC = system: HOP-62 NSCLC
HOP-92 NSCLC = system: HOP-92 NSCLC
HS 578T breast = system: HS 578T breast
HT29 colon = system: HT29 colon
IGROV1 ovarian = system: IGROV1 ovarian
KM12 colon = system: KM12 colon
LOX IMVI melanoma = system: LOX IMVI melanoma
M14 melanoma = system: M14 melanoma
MALME-3M melanoma = system: MALME-3M melanoma
MCF7 breast = system: MCF7 breast
MDA-MB-231 breast = system: MDA-MB-231 breast
MDA-MB-468 breast = system: MDA-MB-468 breast
MOLT-4 leukemia = system: MOLT-4 leukemia
NCI-H322M lung = system: NCI-H322M lung
NCI-H522 lung = system: NCI-H522 lung
OVCAR-3 ovarian = system: OVCAR-3 ovarian
OVCAR-5 ovarian = system: OVCAR-5 ovarian
RPMI-8226 leukemia = system: RPMI-8226 leukemia
RXF 393 renal = system: RXF 393 renal
SF-268 CNS = system: SF-268 CNS
SF-295 CNS = system: SF-295 CNS
SF-539 CNS = system: SF-539 CNS
SK-MEL-28 melanoma = system: SK-MEL-28 melanoma
SK-MEL-5 melanoma = system: SK-MEL-5 melanoma
SN12C renal = system: SN12C renal
SR leukemia = system: SR leukemia
T-47D breast = system: T-47D breast
TK-10 renal = system: TK-10 renal
UACC-257 melanoma = system: UACC-257 melanoma
UACC-62 melanoma = system: UACC-62 melanoma
UO-31 renal = system: UO-31 renal

## CCOc1cc2ncc(C#N)c(Nc3ccc(OCc4ccccn4)c(Cl)c3)c2cc1NC(=O)/C=C/CN(C)C
786-0 renal
  GI50: 0.251 µM
  TGI: 1.23 µM
A498 renal
  GI50: 0.0896 µM
  TGI: 1.22 µM
A549 NSCLC
  GI50: 0.312 µM
  TGI: 1.74 µM
ACHN renal
  GI50: 0.0611 µM
  TGI: 1.22 µM
BT-549 breast
  GI50: 0.396 µM
  TGI: 1.52 µM
CAKI-1 renal
  GI50: 0.0987 µM
  TGI: 0.759 µM
COLO 205 colon
  GI50: 3.67 µM
  TGI: > 100 µM
DU-145 prostate
  GI50: 0.143 µM
  TGI: 1.42 µM
EKVX NSCLC
  GI50: 0.0418 µM
  TGI: 1.24 µM
HCC-2998 colon
  GI50: 1.26 µM
  TGI: 2.52 µM
HCT-116 colon
  GI50: 0.473 µM
  TGI: 1.67 µM
HCT-15 colon
  GI50: 0.349 µM
  TGI: 1.5 µM
HL-60(TB) leukemia
  GI50: 0.197 µM
  TGI: 0.639 µM
HOP-62 NSCLC
  GI50: 1.13 µM
  TGI: 2.35 µM
HOP-92 NSCLC
  GI50: 0.351 µM
  TGI: 1.62 µM
HS 578T breast
  GI50: 0.22 µM
  TGI: 0.848 µM
HT29 colon
  GI50: 1.23 µM
  TGI: 2.49 µM
IGROV1 ovarian
  GI50: 0.0259 µM
  TGI: 0.32 µM
KM12 colon
  GI50: 1.2 µM
  TGI: 2.45 µM
LOX IMVI melanoma
  GI50: 0.969 µM
  TGI: 2.15 µM
M14 melanoma
  GI50: 0.276 µM
  TGI: 1.18 µM
MALME-3M melanoma
  GI50: 0.188 µM
  TGI: 0.808 µM
MCF7 breast
  GI50: 0.881 µM
  TGI: 2.1 µM
MDA-MB-231 breast
  GI50: 0.754 µM
  TGI: 2 µM
MDA-MB-468 breast
  GI50: < 0.01 µM
  TGI: 0.029 µM
MOLT-4 leukemia
  GI50: 0.207 µM
  TGI: 0.511 µM
NCI-H322M lung
  GI50: 0.0149 µM
  TGI: 0.053 µM
NCI-H522 lung
  GI50: < 0.01 µM
  TGI: 0.0633 µM
OVCAR-3 ovarian
  GI50: 0.148 µM
  TGI: > 100 µM
OVCAR-5 ovarian
  GI50: 0.864 µM
  TGI: > 100 µM
RPMI-8226 leukemia
  GI50: 0.242 µM
  TGI: 0.515 µM
RXF 393 renal
  GI50: 0.143 µM
  TGI: 0.598 µM
SF-268 CNS
  GI50: 0.311 µM
  TGI: > 100 µM
SF-295 CNS
  GI50: > 100 µM
  TGI: > 100 µM
SF-539 CNS
  GI50: 2.17 µM
  TGI: > 100 µM
SK-MEL-28 melanoma
  GI50: > 100 µM
  TGI: > 100 µM
SK-MEL-5 melanoma
  GI50: 0.183 µM
  TGI: 0.474 µM
SN12C renal
  GI50: 0.14 µM
  TGI: > 100 µM
SR leukemia
  GI50: 0.53 µM
  TGI: 0.876 µM
T-47D breast
  GI50: < 0.01 µM
  TGI: > 100 µM
TK-10 renal
  GI50: 0.071 µM
  TGI: > 100 µM
UACC-257 melanoma
  GI50: 2.15 µM
  TGI: > 100 µM
UACC-62 melanoma
  GI50: 0.405 µM
  TGI: > 100 µM
UO-31 renal
  GI50: 0.267 µM
  TGI: > 100 µM
